Test results from the supplement of paper PMC6411743.

Tests used:
guanosine triphosphate = compound: Nc1nc2c(ncn2[C@@H]2O[C@H](COP(=O)(O)OP(=O)(O)OP(=O)(O)O)[C@@H](O)[C@H]2O)c(=O)[nH]1 [guanosine triphosphate]; assay: pEC50 of GTP-induced change in protein thermal stability (2D-TPP)
How it was run: (§1)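 Soluble protein was quantified by TMT LC-MS/MS after ultracentrifugation of Jurkat crude lysate that had been dosed at five concentrations including vehicle (10 min, room temperature), heated at 12 temperatures of 42–63.9 °C for 3 min, and incubated with NP40 and benzonase at 4 °C for 60 min. Fold changes against vehicle at each temperature were median-normalised, and pEC50 was derived from per-replicate dose-response fits over adjacent temperature pairs. Hits were called with permutation-based false discovery rate control in three independent experiments.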

adenosine triphosphate = compound: Nc1ncnc2c1ncn2[C@@H]1O[C@H](COP(=O)(O)OP(=O)(O)OP(=O)(O)O)[C@@H](O)[C@H]1O [adenosine triphosphate]; assay: pEC50 of ATP-induced change in protein thermal stability (2D-TPP)
How it was run: as §1
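Wherever pEC50 of ATP-induced change in protein thermal stability (2D-TPP) is given: lysate dosed with Na-ATP at 0 0.005 0.05 0.5 and 2 mM.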

- pEC50 (guanosine triphosphate): 3.92
- pEC50 (adenosine triphosphate): 4.33
Target: VPS4B (effect direction: stabilized) (UniProt O75351)
UniProt O75351, sequence (O75351 whole entry): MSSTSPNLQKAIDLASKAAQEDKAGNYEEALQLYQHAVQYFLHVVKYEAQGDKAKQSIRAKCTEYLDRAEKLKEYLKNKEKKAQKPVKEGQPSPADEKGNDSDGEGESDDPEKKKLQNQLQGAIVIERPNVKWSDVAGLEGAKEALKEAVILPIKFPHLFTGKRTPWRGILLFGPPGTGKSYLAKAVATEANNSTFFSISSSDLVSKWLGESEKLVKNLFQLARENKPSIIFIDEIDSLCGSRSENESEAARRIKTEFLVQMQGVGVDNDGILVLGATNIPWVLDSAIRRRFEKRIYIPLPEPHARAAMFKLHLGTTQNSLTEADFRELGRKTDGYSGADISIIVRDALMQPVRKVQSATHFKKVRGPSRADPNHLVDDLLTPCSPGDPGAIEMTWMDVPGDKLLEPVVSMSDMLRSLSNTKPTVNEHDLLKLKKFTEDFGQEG
